Assay results reported in patent publication US20250230193A1, “CYCLIC COMPOUND HAVING SELECTIVE KRAS INHIBITORY EFFECT ON HRAS AND NRAS” (CHUGAI SEIYAKU KABUSHIKI KAISHA, priority 2022, published 2025).

Columns and labels:
[1] = molecular target: GDP-bound HRAS wild-type protein (Homo sapiens, UniProt P01112); assay: Binding to HRAS by surface plasmon resonance (SPR), Single Cycle Kinetics; conditions: SPR, GDP-bound HRAS wild-type vs GDP-bound KRAS wild-type
[2] = molecular target: GDP-bound NRAS wild-type protein (Homo sapiens, UniProt P01111); assay: Binding to NRAS by surface plasmon resonance (SPR), Single Cycle Kinetics; conditions: SPR, GDP-bound NRAS wild-type vs GDP-bound KRAS wild-type
GDP-bound NRAS wild-type protein, sequence (P01111 whole entry): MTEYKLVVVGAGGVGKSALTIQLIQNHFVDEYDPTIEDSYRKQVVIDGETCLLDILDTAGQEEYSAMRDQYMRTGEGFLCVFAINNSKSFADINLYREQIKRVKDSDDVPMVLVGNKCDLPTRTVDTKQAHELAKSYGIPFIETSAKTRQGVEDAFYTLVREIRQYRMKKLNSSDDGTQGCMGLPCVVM

GDP-bound HRAS wild-type protein, sequence (P01112 whole entry): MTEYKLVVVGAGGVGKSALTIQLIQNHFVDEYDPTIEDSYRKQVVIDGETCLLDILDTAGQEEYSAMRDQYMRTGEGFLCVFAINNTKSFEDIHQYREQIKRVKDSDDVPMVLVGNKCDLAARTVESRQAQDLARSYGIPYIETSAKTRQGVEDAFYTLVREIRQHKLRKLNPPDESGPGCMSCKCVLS

CCC[C@H]1C(=O)N[C@@H]([C@@H](C)CC)C(=O)N(C)CC(=O)N(C)[C@H]2C/C=C\CCN(C2=O)[C@@H](CC2CCC(F)(F)CC2)C(=O)N(C)CC(=O)N[C@@H](CCc2cc(F)c(C(F)(F)F)c(F)c2)C(=O)N2C[C@H](OCC)C[C@H]2C(=O)NC2(CC(C)(C)C2)C(=O)N(C)[C@@H](C(CC)CC)C(=O)N(C)[C@H](C(=O)N(C)C)CC(=O)N1C [PP2489]
HRAS/KRAS (ratio of KD value with respect to HRAS to KD value with respect to KRAS) [1]: A (a compound having 10 or more and less than 20 is denoted as A) | NRAS/KRAS (ratio of KD value with respect to NRAS to KD value with respect to KRAS) [2]: A (a compound having 10 or more and less than 20 is denoted as A)

CCCOC[C@H]1C(=O)N[C@@H]([C@@H](C)CC)C(=O)N(C)CC(=O)N(C)[C@H]2C/C=C\CCN(C2=O)[C@@H](CC2CCC(F)(F)CC2)C(=O)N(C)CC(=O)N[C@@H](CCc2cc(F)c(C(F)(F)F)c(F)c2)C(=O)N2C[C@@H](C)C[C@H]2C(=O)NC2(CC(C)(C)C2)C(=O)N(C)[C@@H](C(CC)CC)C(=O)N(C)[C@H](C(=O)N(C)C)CC(=O)N1C [PP2490]
HRAS/KRAS (ratio of KD value with respect to HRAS to KD value with respect to KRAS) [1]: A (a compound having 10 or more and less than 20 is denoted as A) | NRAS/KRAS (ratio of KD value with respect to NRAS to KD value with respect to KRAS) [2]: AA (a compound having 20 or more is denoted as AA)

CCO[C@@H]1C[C@H]2C(=O)NC3(CC(C)(C)C3)C(=O)N(C)[C@@H](C(CC)CC)C(=O)N(C)[C@H](C(=O)N(C)C)CC(=O)N(C)[C@@H](C(C)C)C(=O)N[C@@H]([C@@H](C)CC)C(=O)N(C)CC(=O)N(C)[C@H]3C/C=C\CCN(C3=O)[C@@H](CC3CCC(F)(F)CC3)C(=O)N(C)CC(=O)N[C@@H](CCc3ccc(C(F)(F)F)c(Cl)c3)C(=O)N2C1 [PP2492]
HRAS/KRAS (ratio of KD value with respect to HRAS to KD value with respect to KRAS) [1]: A (a compound having 10 or more and less than 20 is denoted as A) | NRAS/KRAS (ratio of KD value with respect to NRAS to KD value with respect to KRAS) [2]: AA (a compound having 20 or more is denoted as AA)

CCC(CC)[C@H]1C(=O)N(C)[C@H](C(=O)N(C)C)CC(=O)N(C)[C@@H](CC2CC2)C(=O)N[C@@H]([C@@H](C)CC)C(=O)N(C)CC(=O)N(C)[C@H]2C/C=C\CCN(C2=O)[C@@H](CC2CCC(F)(F)CC2)C(=O)N(C)CC(=O)N[C@@H](CCc2ccc(C(F)(F)F)c(OC)c2)C(=O)N2C[C@@H](C)C[C@H]2C(=O)NC2(CC(C)(C)C2)C(=O)N1C [PP2494]
HRAS/KRAS (ratio of KD value with respect to HRAS to KD value with respect to KRAS) [1]: A (a compound having 10 or more and less than 20 is denoted as A) | NRAS/KRAS (ratio of KD value with respect to NRAS to KD value with respect to KRAS) [2]: A (a compound having 10 or more and less than 20 is denoted as A)

CCO[C@@H]1C[C@H]2C(=O)NC3(CC(C)(C)C3)C(=O)N(C)[C@@H](C(CC)CC)C(=O)N(C)[C@H](C(=O)N(C)C)CC(=O)N(C)[C@@H](CC3CC3)C(=O)N[C@@H]([C@@H](C)CC)C(=O)N(C)CC(=O)N(C)[C@H]3C/C=C\CCN(C3=O)[C@@H](CC3CCC(F)(F)CC3)C(=O)N(C)CC(=O)N[C@@H](CCc3ccc(C(F)(F)F)c(Cl)c3)C(=O)N2C1 [PP2495]
HRAS/KRAS (ratio of KD value with respect to HRAS to KD value with respect to KRAS) [1]: A (a compound having 10 or more and less than 20 is denoted as A) | NRAS/KRAS (ratio of KD value with respect to NRAS to KD value with respect to KRAS) [2]: A (a compound having 10 or more and less than 20 is denoted as A)

CCC(CC)[C@H]1C(=O)N(C)[C@H](C(=O)N(C)C)CC(=O)N(C)[C@@H](C(C)C)C(=O)N[C@@H]([C@@H](C)CC)C(=O)N(C)CC(=O)N(C)[C@H]2C/C=C\CCN(C2=O)[C@@H](CC2CCC(F)(F)CC2)C(=O)N(C)CC(=O)N[C@@H](CCc2cc(F)c(C(F)(F)F)c(F)c2)C(=O)N2C[C@@H](C)C[C@H]2C(=O)NC2(CC(C)(C)C2)C(=O)N1C [PP2496]
HRAS/KRAS (ratio of KD value with respect to HRAS to KD value with respect to KRAS) [1]: A (a compound having 10 or more and less than 20 is denoted as A) | NRAS/KRAS (ratio of KD value with respect to NRAS to KD value with respect to KRAS) [2]: A (a compound having 10 or more and less than 20 is denoted as A)

CCC[C@H]1C(=O)N[C@@H]([C@@H](C)CC)C(=O)N(C)CC(=O)N(C)[C@H]2C/C=C\CCN(C2=O)[C@@H](CC2CCC(F)(F)CC2)C(=O)N(C)CC(=O)N[C@@H](CCc2ccc(C(F)(F)F)c(OC)c2)C(=O)N2C[C@@H](C)C[C@H]2C(=O)NC2(CC(C)(C)C2)C(=O)N(C)[C@@H](C(CC)CC)C(=O)N(C)[C@H](C(=O)N(C)C)CC(=O)N1C [PP2497]
HRAS/KRAS (ratio of KD value with respect to HRAS to KD value with respect to KRAS) [1]: A (a compound having 10 or more and less than 20 is denoted as A) | NRAS/KRAS (ratio of KD value with respect to NRAS to KD value with respect to KRAS) [2]: A (a compound having 10 or more and less than 20 is denoted as A)

CCC[C@H]1C(=O)N[C@@H]([C@@H](C)CC)C(=O)N(C)CC(=O)N(C)[C@H]2C/C=C\CCN(C2=O)[C@@H](CC2CCC(F)(F)CC2)C(=O)N(C)CC(=O)N[C@@H](CCc2ccc(C(F)(F)F)c(Cl)c2)C(=O)N2C[C@H](OCC)C[C@H]2C(=O)NC2(CC(C)(C)C2)C(=O)N(C)[C@@H](C(CC)CC)C(=O)N(C)[C@H](C(=O)N(C)C)CC(=O)N1C [PP2498]
HRAS/KRAS (ratio of KD value with respect to HRAS to KD value with respect to KRAS) [1]: A (a compound having 10 or more and less than 20 is denoted as A) | NRAS/KRAS (ratio of KD value with respect to NRAS to KD value with respect to KRAS) [2]: A (a compound having 10 or more and less than 20 is denoted as A)

CCC(CC)[C@H]1C(=O)N(C)[C@H](C(=O)N(C)C)CC(=O)N(C)[C@@H](CC2CC2)C(=O)N[C@@H]([C@@H](C)CC)C(=O)N(C)CC(=O)N(C)[C@H]2C/C=C\CCN(C2=O)[C@@H](CC2CCC(F)(F)CC2)C(=O)N(C)CC(=O)N[C@@H](CCc2cc(F)c(C(F)(F)F)c(F)c2)C(=O)N2C[C@@H](C)C[C@H]2C(=O)NC2(CC(C)(C)C2)C(=O)N1C [PP2500]
HRAS/KRAS (ratio of KD value with respect to HRAS to KD value with respect to KRAS) [1]: A (a compound having 10 or more and less than 20 is denoted as A) | NRAS/KRAS (ratio of KD value with respect to NRAS to KD value with respect to KRAS) [2]: A (a compound having 10 or more and less than 20 is denoted as A)

CCCOC[C@H]1C(=O)N[C@@H]([C@@H](C)CC)C(=O)N(C)CC(=O)N(C)[C@H]2C/C=C\CCN(C2=O)[C@@H](CC2CCCCC2)C(=O)N(C)CC(=O)N[C@@H](CCc2cc(F)c(C(F)(F)F)c(F)c2)C(=O)N2C[C@H](OCC)C[C@H]2C(=O)NC2(CC(C)(C)C2)C(=O)N(C)[C@@H](C(CC)CC)C(=O)N(C)[C@H](C(=O)N(C)C)CC(=O)N1C [PP2501]
HRAS/KRAS (ratio of KD value with respect to HRAS to KD value with respect to KRAS) [1]: A (a compound having 10 or more and less than 20 is denoted as A) | NRAS/KRAS (ratio of KD value with respect to NRAS to KD value with respect to KRAS) [2]: AA (a compound having 20 or more is denoted as AA)

CC[C@H](C)[C@@H]1NC(=O)[C@H](COC)N(C)C(=O)C[C@@H](C(=O)N(C)C)N(C)C(=O)[C@H](C2CCCC2)N(C)C(=O)C2(CC(C)(C)C2)NC(=O)[C@@H]2C[C@H](C)CN2C(=O)[C@H](CCc2ccc(C(F)(F)F)c(Cl)c2)NC(=O)CN(C)C(=O)[C@H](Cc2ccc(C)cc2)N2CC/C=C\C[C@@H](C2=O)N(C)C(=O)CN(C)C1=O [PP2502]
HRAS/KRAS (ratio of KD value with respect to HRAS to KD value with respect to KRAS) [1]: A (a compound having 10 or more and less than 20 is denoted as A) | NRAS/KRAS (ratio of KD value with respect to NRAS to KD value with respect to KRAS) [2]: A (a compound having 10 or more and less than 20 is denoted as A)

CCOC[C@H]1C(=O)N[C@@H]([C@@H](C)CC)C(=O)N(C)CC(=O)N(C)[C@H]2C/C=C\CCN(C2=O)[C@@H](Cc2ccc(C)cc2)C(=O)N(C)CC(=O)N[C@@H](CCc2ccc(C(F)(F)F)c(OC)c2)C(=O)N2C[C@@H](C)C[C@H]2C(=O)NC2(CC(C)(C)C2)C(=O)N(C)[C@@H](C2CCCC2)C(=O)N(C)[C@H](C(=O)N(C)C)CC(=O)N1C [PP2505]
HRAS/KRAS (ratio of KD value with respect to HRAS to KD value with respect to KRAS) [1]: B (a compound having 3 or more and less than 10 is denoted as B) | NRAS/KRAS (ratio of KD value with respect to NRAS to KD value with respect to KRAS) [2]: A (a compound having 10 or more and less than 20 is denoted as A)

CC[C@H](C)[C@@H]1NC(=O)[C@H](COC)N(C)C(=O)C[C@@H](C(=O)N(C)CC)N(C)C(=O)[C@H](C2CCCC2)N(C)C(=O)C2(CC(C)(C)C2)NC(=O)[C@@H]2C[C@H](C)CN2C(=O)[C@H](CCc2ccc(C(F)(F)F)c(Cl)c2)NC(=O)CN(C)C(=O)[C@H](Cc2ccc(C)cc2)N2CC/C=C\C[C@@H](C2=O)N(C)C(=O)CN(C)C1=O [PP2506]
HRAS/KRAS (ratio of KD value with respect to HRAS to KD value with respect to KRAS) [1]: A (a compound having 10 or more and less than 20 is denoted as A) | NRAS/KRAS (ratio of KD value with respect to NRAS to KD value with respect to KRAS) [2]: A (a compound having 10 or more and less than 20 is denoted as A)

CCO[C@@H]1C[C@H]2C(=O)NC3(CC(C)(C)C3)C(=O)N(C)[C@@H](C3CCCC3)C(=O)N(C)[C@H](C(=O)N(C)CC)CC(=O)N(C)[C@@H](COC)C(=O)N[C@@H]([C@@H](C)CC)C(=O)N(C)CC(=O)N(C)[C@H]3C/C=C\CCN(C3=O)[C@@H](Cc3ccc(C)cc3)C(=O)N(C)CC(=O)N[C@@H](CCc3ccc(C(F)(F)F)c(Cl)c3)C(=O)N2C1 [PP2507]
HRAS/KRAS (ratio of KD value with respect to HRAS to KD value with respect to KRAS) [1]: A (a compound having 10 or more and less than 20 is denoted as A) | NRAS/KRAS (ratio of KD value with respect to NRAS to KD value with respect to KRAS) [2]: AA (a compound having 20 or more is denoted as AA)

CCC[C@H]1C(=O)N[C@@H](CC(C)C)C(=O)N(C2CC2)CC(=O)N(C)[C@H]2C/C=C\CCN(C2=O)[C@@H](Cc2ccc(C)cc2)C(=O)N(C)CC(=O)N[C@@H](CCc2cc(F)c(C(F)(F)F)c(F)c2)C(=O)N2C[C@H](OCC)C[C@H]2C(=O)NC2(CC(C)(C)C2)C(=O)N(C)[C@@H](C2CCCC2)C(=O)N(C)[C@H](C(=O)N(C)C)CC(=O)N1C [PP2508]
HRAS/KRAS (ratio of KD value with respect to HRAS to KD value with respect to KRAS) [1]: B (a compound having 3 or more and less than 10 is denoted as B) | NRAS/KRAS (ratio of KD value with respect to NRAS to KD value with respect to KRAS) [2]: A (a compound having 10 or more and less than 20 is denoted as A)

CCC[C@H]1C(=O)N[C@@H](CC(C)C)C(=O)N(C2CC2)CC(=O)N(C)[C@H]2C/C=C\CCN(C2=O)[C@@H](Cc2ccc(C)cc2)C(=O)N(C)CC(=O)N[C@@H](CCc2ccc(C(F)(F)F)c(OC)c2)C(=O)N2C[C@H](OCC)C[C@H]2C(=O)NC2(CC(C)(C)C2)C(=O)N(C)[C@@H](C2CCCC2)C(=O)N(C)[C@H](C(=O)N(C)C)CC(=O)N1C [PP2510]
HRAS/KRAS (ratio of KD value with respect to HRAS to KD value with respect to KRAS) [1]: B (a compound having 3 or more and less than 10 is denoted as B) | NRAS/KRAS (ratio of KD value with respect to NRAS to KD value with respect to KRAS) [2]: A (a compound having 10 or more and less than 20 is denoted as A)
